According to patent publication US20210261512A1, “NOVEL COMPOUNDS” (INFLAZOME LIMITED, priority 2018, published 2021):
pIC50: −log10 of the molar value.

Key:
NLRP3 [1] = target: T1, NLRP3 (Homo sapiens, UniProt Q96P20); assay: THP-1 cells pyroptosis assay; type: cell-based; parameters: Seed THP-1 cells (25,000 cells/well) containing 1.0 μg/ml LPS; host or cells: THP-1; conditions: LPS 1.0 μg/ml, nigericin 5 μM, resazurin readout, 10 μM top dose (Example 2: top dose of 30 μM)
How it was run: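 THP-1 cells (25,000/well) primed with 1 μg/ml LPS in serum-free RPMI, treated with compound (8-point dilution, 10 μM top unless stated; 0.1% DMSO) 3 h at 37°C, then nigericin 5 μM 1 h. Viability read by resazurin (100 μM, 1-2 h) fluorescence; IC50 from 4-parameter fit.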

NLRP3 [2] = target: T1, NLRP3; assay: Human whole blood IL1β release assay; type: cell-based; conditions: LPS 1 μg/ml, nigericin 10 μM, IL-1β AlphaLisa, 10 μM top dose (Example 2: top dose of 30 μM), read-out: HWB IC50
How it was run: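 Healthy-donor heparinised human whole blood with 1 μg/ml LPS, compound (8-point half-log dilution, 10 μM top dose unless stated; 0.1% DMSO vehicle) for 3 h at 37 °C, then nigericin 10 μM final for 1 h. Supernatant IL-1β by AlphaLISA; IC50 from 4-parameter variable-slope fit.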

T1 sequence (Q96P20 whole entry): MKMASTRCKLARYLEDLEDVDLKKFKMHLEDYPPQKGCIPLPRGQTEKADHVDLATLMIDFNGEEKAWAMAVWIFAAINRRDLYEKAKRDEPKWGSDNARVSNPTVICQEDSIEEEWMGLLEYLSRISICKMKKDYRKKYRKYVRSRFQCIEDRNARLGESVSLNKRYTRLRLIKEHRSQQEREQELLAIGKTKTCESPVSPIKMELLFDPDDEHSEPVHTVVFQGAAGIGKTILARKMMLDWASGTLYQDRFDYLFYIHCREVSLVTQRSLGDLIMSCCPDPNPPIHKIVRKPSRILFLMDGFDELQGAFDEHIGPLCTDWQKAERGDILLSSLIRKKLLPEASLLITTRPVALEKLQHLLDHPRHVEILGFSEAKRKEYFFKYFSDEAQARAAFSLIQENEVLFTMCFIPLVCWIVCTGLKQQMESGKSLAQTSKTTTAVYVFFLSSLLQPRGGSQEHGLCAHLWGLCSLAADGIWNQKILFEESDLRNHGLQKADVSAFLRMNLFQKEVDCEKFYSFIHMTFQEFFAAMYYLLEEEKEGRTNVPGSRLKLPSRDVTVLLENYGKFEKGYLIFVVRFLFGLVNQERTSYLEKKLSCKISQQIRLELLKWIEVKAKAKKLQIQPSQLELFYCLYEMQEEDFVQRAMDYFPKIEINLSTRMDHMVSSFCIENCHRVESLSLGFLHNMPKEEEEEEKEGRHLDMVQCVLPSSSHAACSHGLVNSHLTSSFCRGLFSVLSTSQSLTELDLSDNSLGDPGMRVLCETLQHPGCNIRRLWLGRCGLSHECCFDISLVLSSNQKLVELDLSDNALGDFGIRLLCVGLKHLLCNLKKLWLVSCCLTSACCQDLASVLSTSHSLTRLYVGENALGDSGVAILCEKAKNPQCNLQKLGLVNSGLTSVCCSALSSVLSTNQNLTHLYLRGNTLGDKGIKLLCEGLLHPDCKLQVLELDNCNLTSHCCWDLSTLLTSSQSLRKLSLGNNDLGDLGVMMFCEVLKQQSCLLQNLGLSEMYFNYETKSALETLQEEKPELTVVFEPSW

| pIC50 (NLRP3 [1]) | pIC50 (NLRP3 [2]) | Structure (SMILES) |
| --- | --- | --- |
| ≥ 6.30 | ≥ 5.00 | CC(C)(O)C1CCN(S(=O)(=O)c2nnc(Nc3c4c(cc5c3CCC5)CCC4)[nH]2)CC1 [Example 293, 2-(1-((5-((1,2,3,5,6,7-hexahydro-s-indacen-4-yl)amino)-4H-1,2,4-triazol-3-yl)sulfonyl)piperidin-4-yl)propan-2-ol] |
| ≥ 6.00 | ≥ 5.30 | O=S(=O)(c1nnc(Nc2c3c(cc4c2CCC4)CCC3)[nH]1)N1CC2(CCC(O)C2)C1 (stereo not drawn) [Example 346, 2-((5-((1,2,3,5,6,7-hexahydro-s-indacen-4-yl)amino)-4H-1,2,4-triazol-3-yl)sulfonyl)-2-azaspiro[3.4]octan-6-ol] |
| ≥ 6.00 | ≥ 5.30 | Cc1cc2c(c(Nc3nnc(S(C)(=O)=O)[nH]3)c1-c1ccnc(OC3CCN(C)CC3)c1)CCC2 [Example 317, N-(6-methyl-5-(2-((1-methylpiperidin-4-yl)oxy)pyridin-4-yl)-2,3-dihydro-1H-inden-4-yl)-5-(methylsulfonyl)-4H-1,2,4-triazol-3-amine] |
| ≥ 5.30 | ≥ 5.30 | CN1CC2(CC1=O)CN(S(=O)(=O)c1nnc(Nc3c4c(cc5c3CCC5)CCC4)[nH]1)C2 [Example 331, 2-((5-((1,2,3,5,6,7-hexahydro-s-indacen-4-yl)amino)-4H-1,2,4-triazol-3-yl)sulfonyl)-6-methyl-2,6-diazaspiro[3.4]octan-7-one] |
| ≥ 6.00 | ≥ 5.00 | CC(C)(O)[C@@H]1CCN(S(=O)(=O)c2nnc(Nc3c4c(cc5c3CCC5)CCC4)[nH]2)C1 [Example 330, (R)-2-(1-((5-((1,2,3,5,6,7-hexahydro-s-indacen-4-yl)amino)-4H-1,2,4-triazol-3-yl)sulfonyl)pyrrolidin-3-yl)propan-2-ol] |
| ≥ 6.30 | ≥ 6.00 | CN(C)CC1CCN(S(=O)(=O)c2nnc(Nc3c4c(cc5c3CCC5)CCC4)[nH]2)CC1 [Example 304, 5-((4-((dimethylamino)methyl)piperidin-1-yl)sulfonyl)-N-(1,2,3,5,6,7-hexahydro-s-indacen-4-yl)-4H-1,2,4-triazol-3-amine] |
| ≥ 6.30 | ≥ 6.30 | CNCC1CN(S(=O)(=O)c2nnc(Nc3c4c(cc5c3CCC5)CCC4)[nH]2)C1 [Example 279, N-(1,2,3,5,6,7-hexahydro-s-indacen-4-yl)-5-((3-((methylamino)methyl)azetidin-1-yl)sulfonyl)-4H-1,2,4-triazol-3-amine] |
| ≥ 6.30 | ≥ 6.30 | CN(C)CC1CN(S(=O)(=O)c2nnc(Nc3c4c(cc5c3CCC5)CCC4)[nH]2)C1 [Example 291, 5-((3-((dimethylamino)methyl)azetidin-1-yl)sulfonyl)-N-(1,2,3,5,6,7-hexahydro-s-indacen-4-yl)-4H-1,2,4-triazol-3-amine] |
| ≥ 6.30 | ≥ 6.00 | [2H]C([2H])([2H])Oc1cc(-c2ccc3c(c2Nc2nnc(S(=O)(=O)N4CC[C@H](C(C)(C)O)C4)[nH]2)CCO3)ccn1 [Example 343, (S)-2-(1-((5-((5-(2-(methoxy-d3)pyridin-4-yl)-2,3-dihydrobenzofuran-4-yl)amino)-4H-1,2,4-triazol-3-yl)sulfonyl)pyrrolidin-3-yl)propan-2-ol] |

The next lines start with the compound.

| Structure (SMILES) | pIC50 (NLRP3 [1]) | pIC50 (NLRP3 [2]) |
| --- | --- | --- |
| Cc1cc(-c2ccc3c(c2Nc2nnc(S(=O)(=O)N4CCC(N(C)C)CC4)[nH]2)CCC3)ccn1 [Example 221, N,N-dimethyl-1-((5-((5-(2-methylpyridin-4-yl)-2,3-dihydro-1H-inden-4-yl)amino)-4H-1,2,4-triazol-3-yl)sulfonyl)piperidin-4-amine] | ≥ 6.30 | ≥ 5.30 |
| Cc1cc(-c2ccc3c(c2Nc2nnc(S(=O)(=O)N4CCC(N(C)C)CC4)[nH]2)CCO3)ccn1 [Example 217, N,N-dimethyl-1-((5-((5-(2-methylpyridin-4-yl)-2,3-dihydrobenzofuran-4-yl)amino)-4H-1,2,4-triazol-3-yl)sulfonyl)piperidin-4-amine] | ≥ 5.30 | ≥ 5.00 |
| CN(C)C[C@H]1CCN(S(=O)(=O)c2nnc(Nc3c4c(cc5c3CCC5)CCC4)[nH]2)C1 [Example 148, (R)-5-((3-((dimethylamino)methyl)pyrrolidin-1-yl)sulfonyl)-N-(1,2,3,5,6,7-hexahydro-s-indacen-4-yl)-4H-1,2,4-triazol-3-amine] | ≥ 6.30 | ≥ 6.30 |
| CC(C)N(CCNS(=O)(=O)c1nnc(Nc2c3c(cc4c2CCC4)CCC3)[nH]1)C(C)C [Example 110, N-(2-(diisopropylamino)ethyl)-5-((1,2,3,5,6,7-hexahydro-s-indacen-4-yl)amino)-4H-1,2,4-triazole-3-sulfonamide] | ≥ 6.30 | ≥ 5.00 |
| CN1CCCC1CNS(=O)(=O)c1nnc(Nc2c3c(cc4c2CCC4)CCC3)[nH]1 (stereo not drawn) [Example 95, 5-((1,2,3,5,6,7-hexahydro-s-indacen-4-yl)amino)-N-((1-methylpyrrolidin-2-yl)methyl)-4H-1,2,4-triazole-3-sulfonamide] | ≥ 6.00 | ≥ 5.30 |
| CN1CCCCC1CNS(=O)(=O)c1nnc(Nc2c3c(cc4c2CCC4)CCC3)[nH]1 (stereo not drawn) [Example 141, 5-((1,2,3,5,6,7-hexahydro-s-indacen-4-yl)amino)-N-((1-methylpiperidin-2-yl)methyl)-4H-1,2,4-triazole-3-sulfonamide] | ≥ 5.30 | ≥ 5.00 |
| O=S(=O)(c1nnc(Nc2c3c(cc4c2CCC4)CCC3)[nH]1)N1CCCC1 [Example 122, N-(1,2,3,5,6,7-hexahydro-s-indacen-4-yl)-5-(pyrrolidin-1-ylsulfonyl)-4H-1,2,4-triazol-3-amine] | ≥ 5.30 | ≥ 5.00 |
| COc1cc(-c2ccc3c(c2Nc2nnc(S(=O)(=O)N4CCC5(CCN5C)CC4)[nH]2)CCO3)ccn1 [Example 203, N-(5-(2-methoxypyridin-4-yl)-2,3-dihydrobenzofuran-4-yl)-5-((1-methyl-1,7-diazaspiro[3.5]nonan-7-yl)sulfonyl)-4H-1,2,4-triazol-3-amine] | ≥ 6.30 | ≥ 5.30 |
| O=S(=O)(NCC1CCCCN1)c1nnc(Nc2c3c(cc4c2CCC4)CCC3)[nH]1 (stereo not drawn) [Example 132, 5-((1,2,3,5,6,7-hexahydro-s-indacen-4-yl)amino)-N-(piperidin-2-ylmethyl)-4H-1,2,4-triazole-3-sulfonamide] | ≥ 6.30 | ≥ 5.00 |
| CN(C)C1CCN(S(=O)(=O)c2nnc(Nc3c4c(c(F)c5c3CCC5)CCC4)[nH]2)CC1 [Example 224, 1-((5-((8-fluoro-1,2,3,5,6,7-hexahydro-s-indacen-4-yl)amino)-4H-1,2,4-triazol-3-yl)sulfonyl)-N,N-dimethylpiperidin-4-amine] | ≥ 6.30 | ≥ 6.00 |
| CC(C)c1cc(F)cc(C(C)C)c1Nc1nnc(S(=O)(=O)N2CC3(CCN(C)C3)C2)[nH]1 [Example 242, N-(4-fluoro-2,6-diisopropylphenyl)-5-((6-methyl-2,6-diazaspiro[3.4]octan-2-yl)sulfonyl)-4H-1,2,4-triazol-3-amine] | ≥ 6.30 | ≥ 6.30 |
| CN(C)CCCNS(=O)(=O)c1nnc(Nc2c3c(cc4c2CCC4)CCC3)[nH]1 [Example 125, N-(3-(dimethylamino)propyl)-5-((1,2,3,5,6,7-hexahydro-s-indacen-4-yl)amino)-4H-1,2,4-triazole-3-sulfonamide] | ≥ 6.30 | ≥ 5.30 |
